In patent publication US20020136691A1, “Pharmacological evaluation test (PET) in animals for continuous assessment of physiological functions” (priority 2000, published 2002):

Columns and labels:
[1] = tested on: Sprague Dawley rats; assay: Pulmonary function, BUXCO unrestrained whole body plethysmograph; assay type: in vivo
Method: For rats in the pulmonary/CNS arm, pulmonary function (respiratory frequency and tidal volume) was assessed incorporating the BUXCO Unrestrained Whole Body Plethysmograph technique. Rats were placed in a BUXCO chamber, and a 10-minute baseline-recording period was collected. Following the baseline-recording period, the rats were removed from the chambers, orally dosed and returned for a 60-minute period of data collection. At the conclusion of the experiment, the rats were removed from the chambers, and tested for modified Irwin profiling.
The respiratory signal was measured continuously for 10 minutes prior to dosing and […] post-dosing. Respiratory frequency and tidal volume were then extracted from this respiratory signal, and evaluated on a breath-by-breath basis over the course of a one-minute period. These calculated breath-by-breath values for respiratory frequency and tidal volume were averaged over 5-minute segments for the extent of the monitoring period. The time course for these values was then plotted as the mean ±standard deviation for each group studied. An analysis of variance similar to that described above for cardiovascular parameters was also performed.

[2] = tested on: Sprague Dawley rats; assay type: in vivo
Method: Additional CNS monitoring was performed following pulmonary function assessment in that arm of the study. Rats were returned to their home cages and at 65 minutes post-dosing, the rats were placed in Plexiglas observation cylinders. Compound treated rats were systematically compared to vehicle treated rats for behavioral, neurologic and autonomic changes according to a modification of the method described by Irwin. […] The following functions were assessed: increased/decreased motor activity, ataxia, paralysis, tremor, convulsions, abnormal respiration, enhanced salivation, skin color, abnormal feces, death, righting reflex, visual orientation, grip reflex, muscle tone, rectal body temperature, and tail pinch. Body temperatures were also recorded both prior to dosing (baseline) and during modified Irwin testing post-dosing using a Yellow Springs Instruments Telethermometer and rectal probe or equivalent. Following modified Irwin testing, rats were administered anesthesia to effect and blood was collected.
For body temperatures, CBC values, clinical chemistry values, plasma levels and organ weight ratios, means were calculated (±standard deviation or standard error of the mean) and reported where applicable. Statistical evaluations for compound related effects were performed using the Student's t test (paired) and reported as significant if p<0.05.

[3] = tested on: Sprague Dawley rats; assay: Cardiovascular monitoring (blood pressure, heart rate) by DSI telemetry; assay type: in vivo
Method: For the cardiovascular/renal function arm, a Data Sciences International (DSI, St Paul, Minn.) TA11PA-C40 implant was placed in the abdominal aorta of each rat.
Cardiovascular function and motility were assessed in conscious freely moving rats using DSI telemetry recording equipment. On the day of recording, the rats were placed into metabolism cages for simultaneous urine collection. Parameters monitored included blood pressure (BP), heart rate (HR) and activity. Measurements were taken at scheduled intervals (i.e., 10 sec. of data collection once every 2 min. for each rat) over 24 hours. An appropriate baseline period of at least 30 minutes was collected prior to animal dosing. For dosing, rats were briefly removed from their cage, weighed, dosed and returned.
Blood pressure, heart rate and activity were measured for 10 seconds once every 2 minutes for 24 hours. Blood pressure and heart rate were routinely evaluated at baseline, 30 min, 1 h, 2 h, 4 h, 6 h, 8 h, 12 h, 16 h and 20 h post-administration. The last 20 minutes before the start of treatment on Day 1, time-point values were averaged and taken as the baseline value for each rat. The other time-point values were obtained by averaging data 10 minutes prior and 10 minutes post each time-point. […] An analysis of variance was performed with the factors: treatment, animal (according to treatment), time, and treatment time interaction; time incorporated all measurements on the four days. The adjusted mean values post-treatment were compared with baseline. If there was a significant treatment time interaction, tests were performed for comparing the three treatment groups for each time-point. If such a test was significant, the adjusted mean values of the treated group were compared with the concurrent vehicle group for this time-point.

[4] = tested on: Sprague Dawley rats; assay: Renal function monitoring (urine collection in metabolism cages); assay type: in vivo; conditions: 10 and 30 mg/kg p.o., acute; males and females (FIG. 4)
Method: Renal function monitoring was conducted simultaneously with cardiovascular testing. Urine was collected for 0-8 and 8-24 hour time-points. Prior to telemetry data collection, DSI receivers equipped with special mounting strips were hung upside down on metabolism racks (Lab Products, Maywood, N.J.). Metabolism cages were then suspended from the DSI receivers and assembled to provide for food, water, and urine collection. […] Rats were weighed and placed into the recording metabolism cages for a baseline collection period (i.e., 30 minutes). After baseline, each rat was removed, dosed and returned. Pre-weighed collection tubes were placed under each metabolism cage. At 8 hours, the collection tubes were removed, weighed, and replaced with another set of pre-weighed tubes for the 8-24 hour time-point. At 24 hours, collection tubes were again removed and weighed. Following the 24 hour urine collection, rats were anesthetized and blood was collected.
Renal function was evaluated in the cardiovascular/renal function arm. Urine volume was calculated gravimetrically at each time-point. Urine flow was then calculated by (urine volume/time times or ×100/body weight (g)). Flow values were then plotted as the mean ±standard deviation for each group. […] Statistical significance (p<0.05) was assessed using the paired Student's t test.

[5] = tested on: Wistar rats; conditions: 1, 3 or 10 mg/kg p.o., acute
[6] = Body weight, PET rat study; assay type: in vivo, Sprague Dawley rats; conditions: 300 and 1000 mg/kg p.o., subacute; males and females (FIG. 3)
Method: FIG. 3. […] Individual rat body weights were recorded daily in grams using an Ohaus Navigator™ digital balance.
Male and female Sprague Dawley rats from Charles River were used in these experiments. For the “standard” protocol, a total of 48 rats were used. Twenty-four rats (12 female rats and 12 male rats) were placed in the acute pulmonary function/CNS evaluation arm of the study, and 24 rats (12 female rats and 12 male rats) were placed in the subacute cardiovascular/renal arm of the study. Rats in both arms were further divided into 4 subgroups (3 male rats and 3 female rats) which were dosed with vehicle or compound at dose 1, dose 2; or dose 3. Rats in the pulmonary function/CNS evaluation arm of the study were administered a single dose of vehicle or compound. […]
Rats in the cardiovascular/renal function arm of the study (with telemetry implants) were administered daily doses of vehicle or compound for 5 days. Blood pressure, heart rate and motility were continuously monitored 24 hours/day over four days via telemetry recording. Urine was collected 0-8 and 8-24 hours post-dosing on Days 1 and 4 and assessed for changes in volume output and electrolyte excretion. […]
Cardiovascular function and motility were assessed in conscious freely moving rats using DSI telemetry recording equipment. […] Parameters monitored included blood pressure (BP), heart rate (HR) and activity. […]

In the case of `C[C@H](N)Cc1ccccc1` [d-amphetamine], the Respiratory frequency ([1]; 2 and 8 mg/kg p.o., male and female, acute and subacute dosing (FIG. 1)) is reported as “increased in a dose dependent manner”, the “Overt behavioral effects observed” value ([2]; 2 and 8 mg/kg p.o., male and female, acute and subacute) is reported as “increased motility, sniffing, rearing, head weaving and vocalization” and the BP ([3]; males, 8 mg/kg p.o.) is reported as “slightly increased”. For the same compound, the HR ([3]; males, 8 mg/kg p.o.) was “slightly increased”.

With `CN1C(=O)CN=C(c2ccccc2)c2cc(Cl)ccc21` [diazepam] the “Effects in the pulmonary system” value ([1]; 20 and 80 mg/kg p.o.) was “No relevant effects”, the “Modified Irwin profiling” value ([2]; rat, in vivo) was “dose dependent effects on motility, coordination, muscle tone and body temperature” and the “Effects in the CV system” value ([3]; 20 and 80 mg/kg p.o.) was “No relevant effects”.

In the case of `NS(=O)(=O)c1cc(C(=O)O)c(NCc2ccco2)cc1Cl` [furosemide], the Urine output [4] is reported as “dose dependently increased”.

For `COC(=O)C1=C(C)NC(C)=C(C(=O)OC)C1c1ccccc1[N+](=O)[O-]` [nifedipine], the Body temperature [5] was “No effects”, the Heart rate [5] was “dose dependent increase” and the Motility [5] was “No effects”. For the same compound, the Respiration [5] was “No effects”.

In the case of `C[C@]12C=CC(=O)C=C1CC[C@@H]1[C@@H]2[C@@H](O)C[C@@]2(C)[C@H]1CC[C@]2(O)C(=O)CO` [prednisolone], the Body weight [6] is reported as “decrease in body weight” and the “Effects in the CV system” value ([3]; 300 and 1000 mg/kg p.o.) is reported as “No relevant effects”.
